Here are results for three molecules from paper PMC6595003, “Insights into real-time chemical processes in a calcium sensor protein-directed dynamic library” (Nature Communications, 2019).

The structures appear in SMILES notation.

In one series the target is T1, dNCS-1 (Drosophila melanogaster, UniProt Q9VWX8).
T1 construct: made in house; host or cells: E. coli
T1 sequence (Q9VWX8 1-187): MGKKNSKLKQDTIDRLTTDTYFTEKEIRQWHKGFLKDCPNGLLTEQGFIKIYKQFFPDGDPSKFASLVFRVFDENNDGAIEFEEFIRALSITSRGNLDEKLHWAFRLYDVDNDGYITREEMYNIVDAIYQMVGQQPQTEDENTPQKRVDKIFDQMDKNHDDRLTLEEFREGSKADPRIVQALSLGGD
Briefly: Tryptophan emission fluorescence of dNCS-1 at increasing ligand concentrations (apparent Kd). Format: binding. To be noted: for Kd: Ca2+ loaded dNCS-1 0.8 µM, pH 7.9, 5% DMSO, 5 °C, fit to 1:1 stoichiometry, three independent experiments. On the procedure:
(§1) Fluorescence-based experiments with 3a–3e were carried out to estimate their affinity to dNCS-1.
Mean ± SD from three independent experiments. The curves represent the least squares fitting of the experimental data to a 1:1 stoichiometry. To properly compare the different curves, intensities were normalized and represented. […] Input represents 1/10 cell lysates before IP. Quantifications of each lane from four experiments are shown below the blots. Bars represent percentage of NCS-1/ Ric8a binding (mean ± SD) normalized to DMSO. […] Mean ± SD from three independent experiments. […] Then, the percentage of picnotic bodies over the total nuclei was analyzed. Mean ± SD from three independent experiments. Paired two-tailed Student’s test ***P˂0.001; **P < 0.01; *P < 0.05. Source data are provided as a Source Data file. IP immunoprecipitation, WB western blot […]
the length of the pass light (L) is 1cm (see Supplementary Table 3 and Supplementary […]
Fluorescence emission experiments. Tryptophan emission fluorescence of dNCS-1 […]
affinity and calculate the apparent dissociation constant, Kd. Fluorescence measurements were performed by Jobin Yvon Floromax4 spectrofluorimeter equipped […]
5% DMSO at 5 °C. The excitation wavelength was fixed at 295 nm, and the emission spectra range were collected over 300-400 nm.
Then, three independent experiments were performed
Fluorescence intensities were normalized and represented as (I0 − I)/I 0. I stands for the observed fluorescence emission at 345 nm (fluorescence maximum), and I0 is the observed fluorescence emission of the protein itself without any small molecule. The apparent dissociation constant was obtained using a least squares algorithm to fit the experimental data to a 1:1 stoichiometry model.6 The fitting was performed with KaleidaGraph Data Analysis Program. […]
Protein expression and purification. Drosophila and human NCS-1 were over-expressed in E. coli and subsequently purified to homogeneity as previously described.9

Series [1] is described as follows: Parallel artificial membrane permeability assay (PAMPA-BBB). Format: in vitro ADME. To be noted: for Pe (10-6 cm s-1) Experimental 1 / Pe (10-6 cm s-1) Experimental 2 / Pe (10-6 cm s-1) Experimental 3: source data. The text has this: The PAMPA methodology is a high-throughput technique to predict passive permeability through biological membranes that employs a brain lipid porcine as membrane. […]
From this equation and following the pattern established in the literature for BBB permeation prediction2 we could classify compounds as CNS + when they present a permeability > 4.50 x 10-6 cm s-1. Source data are provided as a Source Data file. […]
Parallel artificial membrane permeability assays. Prediction of the brain penetration was evaluated using a parallel artificial membrane permeability assay (PAMPA).4 Ten commercial drugs, phosphate buffer saline solution at pH 7.4 (PBS). DMSO and dodecane were purchased from Sigma, Across organics, Aldrich and Fluka. The porcine […]
plate was a 96-well filtrate plate (Multiscreen® IP Sterile Plate PDVF membrane, pore […]
MAIPS4510) and the acceptor plate was an indented 96-well plate (Multiscreen®, catalog no. MAMCS9610) both from Millipore. Filter PDVF […]
membrane units (diameter 30 mm, pore size 0.45 µm) from Symta were used to filter the samples. A 96-well plate UV reader (Thermoscientific, Multiskan spectrum) was used for the UV measurements.
For orientation: The PAMPA barrier holds no transporters, so it reflects passive diffusion.

For series [2], the system named is Cortical neurons from E14 wild-type mice. The experiment in a line: Toxicity in primary cultured neurons (percentage of picnotic bodies). Format: cell-based. To be noted: 24 h. The text has this:
Mean ± SD from three independent experiments. The curves represent the least squares fitting of the experimental data to a 1:1 stoichiometry. To properly compare the different curves, intensities were normalized and represented. […] Input represents 1/10 cell lysates before IP. Quantifications of each lane from four experiments are shown below the blots. Bars represent percentage of NCS-1/ Ric8a binding (mean ± SD) normalized to DMSO. […] CNS + (green) for Pe > 4.47 × 10^−6 cm s^−1, CNS- (red) for compounds with Pe < 4.47 × 10^–6 cm s^−1. […] Mean ± SD from three independent experiments. […] Then, the percentage of picnotic bodies over the total nuclei was analyzed. Mean ± SD from three independent experiments. Paired two-tailed Student’s test ***P˂0.001; **P < 0.01; *P < 0.05. Source data are provided as a Source Data file. IP immunoprecipitation, WB western blot
Finally, cell toxicity in neurons was quantified as percentage of picnotic bodies for 3b (Fig. 6d).
Cortical neurons were obtained from E14 wt mice (C57BL6J). Mice were maintained in accordance to European law and following Hospital Ramón y Cajal´s animal guidelines. […] Three independent experiments counting cells from three different wells per concentration were performed. To analyzed cell death, neurons were fixed and stained with DAPI.

For series [3] the following is noted: pH 7.9. Here is the method:
as §1

Where [4] appears, read: pig, PAMPA-BBB, pH 7.4, 5% DMSO, 2 h 30 min at 25 °C, mean ± SD, read-out: Pe, in vitro permeability.
[5] abbreviates: PAMPA-BBB, pH 7.4, 5% DMSO, 2 h 30 min at 25 °C, mean ± SD.

For `O=C(Cc1c[nH]c2ccccc12)NN=Cc1ccc([N+](=O)[O-])c(O)c1` (mixture of isomers) [3b], the Kd at dNCS-1 came to 43 ± 6 µM. Also, the “Normalized Fluorescence I0-I/I0” value at dNCS-1 (ligand 3.2 μM) was found to be 0.064; on dNCS-1 (ligand 6.4 μM), 0.094; at dNCS-1 (ligand 8 μM) it was 0.164; at dNCS-1 (ligand 16 μM) it was 0.334; on dNCS-1 (ligand 24 μM) it was 0.447; on dNCS-1 (ligand 32 μM), 0.600. Besides, the “Normalized Fluorescence I0-I/I0” value at dNCS-1 (ligand 48 μM) is 0.701; at dNCS-1 (ligand 64 μM), 0.814; at dNCS-1 (ligand 80 μM), 0.849; at dNCS-1 (ligand 96 μM), 0.900. Besides, the Papp at 2.5 h, 0.04 mg/mL in series [1] (setting [4]) was found to be 12.9 ± 0.8 ×10⁻⁶ cm/s. In addition, in series [1], the “Pe (10-6 cm s-1) Experimental 1” value is 12.9 10-6 cm s-1. The “Pe (10-6 cm s-1) Experimental 2” value in series [1] was 12.33 10-6 cm s-1. Moreover, the “Pe (10-6 cm s-1) Experimental 3” value in series [1] is given as 13.52 10-6 cm s-1. Further, the “percentage of picnotic bodies, % exp 2” value in series [2] (0.2 μM) is listed as 12%; in series [2] (2 μM) it was 10%; in series [2] (10 μM), 12.5%; in series [2] (20 μM), 17.5%. The “percentage of picnotic bodies, % exp 3” value was found to be 10% in series [2] (0.2 μM), 10% in series [2] (2 μM), 15% in series [2] (10 μM) and 22.6% in series [2] (20 μM). Also, the “percentage of picnotic bodies, % exp.1” value was determined as 10.1% in series [2] (0.2 μM), 13.4% in series [2] (2 μM), 14.3% in series [2] (10 μM) and 15.3% in series [2] (20 μM). The “percentage of picnotic bodies over total nuclei, average” value in series [2] (0.2 μM, DMSO 8.4) is given as 10.7%; in series [2] (2 μM, DMSO 8.06667), 11.1333%; in series [2] (10 μM, DMSO 12.1667), 13.9333%; in series [2] (20 μM, DMSO 12), 18.4667%. In addition, in series [2] (0.2, 2, 10, 20 μM), the “cell toxicity in neurons compared with vehicle DMSO” value is “no significant differences”. Besides, the “solubility observed under the experimental conditions” value in series [3] was “soluble”.

Consider `O=C(NN=Cc1ccc([N+](=O)[O-])c(O)c1)C(O)c1ccccc1` (mixture of isomers) [3d], for which the Kd at dNCS-1 worked out at 61 ± 9 µM. Further, the “Normalized Fluorescence I0-I/I0” value is 0.123 at dNCS-1 (ligand 3.2 μM); 0.086 at dNCS-1 (ligand 6.4 μM); 0.187 on dNCS-1 (ligand 8 μM); 0.280 on dNCS-1 (ligand 16 μM); 0.401 on dNCS-1 (ligand 24 μM); 0.424 at dNCS-1 (ligand 32 μM). Moreover, the “Normalized Fluorescence I0-I/I0” value at dNCS-1 (ligand 48 μM) came to 0.549; at dNCS-1 (ligand 64 μM), 0.700; at dNCS-1 (ligand 80 μM) it was 0.766; on dNCS-1 (ligand 96 μM) it was 0.802. Also, the “Pe, in vitro permeability” value in series [1] (setting [5]) is “did not show good permeability values”. Moreover, the Papp at 2.5 h in series [1] (setting [4]) came to 2.5 ± 0.6 ×10⁻⁶ cm/s. In addition, in series [1], the “Pe (10-6 cm s-1) Experimental 1” value is given as 2.5 10-6 cm s-1. Also, the “Pe (10-6 cm s-1) Experimental 2” value in series [1] is given as 2.04 10-6 cm s-1. Further, the “Pe (10-6 cm s-1) Experimental 3” value in series [1] was 2.94 10-6 cm s-1.

On to `O=C(N/N=C/c1ccc([N+](=O)[O-])c(O)c1)c1ccco1` [3a], for which, at dNCS-1, the Kd was 32 ± 2 µM. The “Normalized Fluorescence I0-I/I0” value on dNCS-1 (ligand 3.2 μM) came to 0.131; at dNCS-1 (ligand 6.4 μM), 0.215; on dNCS-1 (ligand 8 μM), 0.262; at dNCS-1 (ligand 16 μM) it was 0.405; at dNCS-1 (ligand 24 μM), 0.544; at dNCS-1 (ligand 32 μM) it was 0.668. Besides, the “Normalized Fluorescence I0-I/I0” value amounted to 0.810 at dNCS-1 (ligand 48 μM), 0.878 on dNCS-1 (ligand 64 μM), 0.924 on dNCS-1 (ligand 80 μM) and 0.955 at dNCS-1 (ligand 96 μM). Besides, the “Pe, in vitro permeability” value in series [1] (setting [5]) was “did not show good permeability values”. In series [1] (Supplementary Table 5), the “Prediction (penetration in the CNS)” value is recorded as “CNS -”. Also, the Papp at 2.5 h in series [1] (setting [4]) was 1.7 ± 0.7 ×10⁻⁶ cm/s. Moreover, in series [1], the “Pe (10-6 cm s-1) Experimental 1” value is listed as 1.7 10-6 cm s-1. The “Pe (10-6 cm s-1) Experimental 2” value in series [1] is reported as 1.25 10-6 cm s-1. The “Pe (10-6 cm s-1) Experimental 3” value in series [1] is given as 2.25 10-6 cm s-1.
